Test results from US20110306547A1, “LHRH - ANTAGONISTS IN THE TREATMENT OF FERTILITY DISORDERS” (Zentaris GmbH, priority 1996, published 2011).
Where a SMILES comes first, the peptide text is derived from it. [ ]: non-standard residue; d: D form. dPhe(4-Cl) = N[C@H](Cc1ccc(Cl)cc1)C(=O)O; d2Nal = N[C@H](Cc1ccc2ccccc2c1)C(=O)O; dCit = NC(=O)NCCC[C@@H](N)C(=O)O; d3Pal = N[C@H](Cc1cccnc1)C(=O)O

Tested on: patients undergoing COS/ART
Test: Phase II clinical trial of Cetrorelix in controlled ovarian stimulation / superovulation for assisted reproduction (COS/ART)
Format: in vivo, human (patients)
Protocol: The results of a phase II clinical trial are shown in Table I. A total of […] patients were treated. […] During multiple dosing, the mean days of Cetrorelix application is 6 days. 25 babies were born by the end of May 1996 (7 following multiple doses; 18 following single/dual doses). [table] […] [table] 238 patients were treated with Cetrorelix by subcutaneous injection of Cetrorelix […]-Lyophilisat. 134 patients were treated with multiple doses and 104 patients with single or dual doses. The multiple doses are 0.25 mg/day or higher. The single dose was 3 mg or higher. […] Multiple doses were applied for 3 to a maximum of 10 days dependent on follicular development.

[1] = multiple dose schedule, daily s.c., 3-7/14 days, phase II dose finding
[2] = single dose, posology 1 day, phase II dose finding

CC(=O)N[C@H](Cc1ccc2ccccc2c1)C(=O)N[C@H](Cc1ccc(Cl)cc1)C(=O)N[C@H](Cc1cccnc1)C(=O)N[C@@H](CO)C(=O)N[C@@H](Cc1ccc(O)cc1)C(=O)N[C@H](CCCNC(N)=O)C(=O)N[C@@H](CC(C)C)C(=O)N[C@@H](CCCNC(=N)N)C(=O)N1CCC[C@H]1C(=O)N[C@H](C)C(N)=O [Cetrorelix] (Ac-[d2Nal][dPhe(4-Cl)][d3Pal]SY[dCit]LRP[dA]-NH2)
premature LH surge (FIG. 1) (FIG. 1): absolute prevention of any premature LH surge
pregnancies (number) (all phase II patients, both regimens): 71 pregnancies
minimal effective dose (Dose/Day) [1]: 0.25 min. effect. dose mg
no effect dose (Dose/Day) [1]: 0.10 no effect. dose mg
premature LH surge (multiple doses of 0.25 mg/day or higher): No premature LH surge was seen in any patient
premature LH surge (single dose of 3 mg or higher): No premature LH surge was seen in any patient
minimal effective dose [2]: 3 min. effective dose mg
no effect dose [2]: 2 no effect. Dose mg
babies born by the end of May 1996 (total): 25
